Structures can show the parent of a compound that is named as a salt.
Target: T1, HCMV polymerase (Human cytomegalovirus, UniProt P08546)
T1 construct: made in house; host or cells: recombinant baculovirus-infected SF-9 cells
Experiment: HCMV polymerase scintillation proximity assay (SPA), modified version
Format: biochemical
Details: CMV polymerase; Table 1; modified assay with 4.5 mM DTT, compounds in 100% DMSO; read-out: Antiviral Selective Polymerase IC50 Values, CMV
Outline: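 SPA measuring 3H-dTTP (90 nM) incorporation on 6 nM biotinylated poly(dA)-oligo(dT) by SF-9-expressed enzyme, pH 7.5 HEPES/KCl/MgCl2/BSA buffer with or without 2 mM CHAPS. Run at 25° C or 37° C, stopped with EDTA while linear (HCMV 30 min); IC50 from linear regression. Modified format adds 4.5 mM DTT, compounds diluted in 100% DMSO.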

T1 sequence (P08546 whole entry): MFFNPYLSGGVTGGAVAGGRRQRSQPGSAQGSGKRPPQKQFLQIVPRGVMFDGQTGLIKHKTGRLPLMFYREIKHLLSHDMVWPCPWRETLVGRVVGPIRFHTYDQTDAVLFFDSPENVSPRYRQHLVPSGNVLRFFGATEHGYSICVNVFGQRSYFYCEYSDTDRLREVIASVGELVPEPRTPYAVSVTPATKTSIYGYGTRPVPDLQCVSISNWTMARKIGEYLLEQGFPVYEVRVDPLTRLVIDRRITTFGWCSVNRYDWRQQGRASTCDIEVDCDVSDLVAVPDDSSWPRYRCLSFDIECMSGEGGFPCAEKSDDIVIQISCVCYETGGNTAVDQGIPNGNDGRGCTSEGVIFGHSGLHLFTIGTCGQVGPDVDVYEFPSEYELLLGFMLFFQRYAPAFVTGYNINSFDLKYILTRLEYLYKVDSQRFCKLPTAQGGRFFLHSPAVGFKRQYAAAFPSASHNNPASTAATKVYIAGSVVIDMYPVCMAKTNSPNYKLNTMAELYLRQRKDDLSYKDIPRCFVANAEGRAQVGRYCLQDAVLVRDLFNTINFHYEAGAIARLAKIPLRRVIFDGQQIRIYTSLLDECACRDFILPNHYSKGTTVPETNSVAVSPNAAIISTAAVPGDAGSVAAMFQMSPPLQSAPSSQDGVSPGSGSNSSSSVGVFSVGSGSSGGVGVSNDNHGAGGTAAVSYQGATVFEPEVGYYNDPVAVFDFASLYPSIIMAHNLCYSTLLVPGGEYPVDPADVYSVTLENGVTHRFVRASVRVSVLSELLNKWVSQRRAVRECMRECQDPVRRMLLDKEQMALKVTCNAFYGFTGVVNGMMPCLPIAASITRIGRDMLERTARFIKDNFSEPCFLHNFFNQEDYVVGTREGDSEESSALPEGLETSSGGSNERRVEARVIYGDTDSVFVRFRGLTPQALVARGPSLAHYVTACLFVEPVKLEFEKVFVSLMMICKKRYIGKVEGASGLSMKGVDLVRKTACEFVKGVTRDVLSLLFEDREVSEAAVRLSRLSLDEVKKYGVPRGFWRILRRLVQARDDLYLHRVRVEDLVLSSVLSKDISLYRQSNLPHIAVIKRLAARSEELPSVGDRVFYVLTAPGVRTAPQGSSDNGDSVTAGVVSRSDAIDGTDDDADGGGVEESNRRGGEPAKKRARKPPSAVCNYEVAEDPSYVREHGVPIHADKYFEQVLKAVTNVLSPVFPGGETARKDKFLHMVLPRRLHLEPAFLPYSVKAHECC

SMILES | IC50
O=C(NCc1ccc(Cl)cc1)c1cnc2c(F)cc(/C=C\CO)cc2c1O [Example 137, N-(4-Chlorobenzyl)-8-fluoro-4-hydroxy-6-[(Z)-3-hydroxy-1-propenyl]-3-quinolinecarboxamide] | 0.6 µM
O=CCCc1cc(F)c2ncc(C(=O)NCc3ccc(Cl)cc3)c(O)c2c1 [Example 139, N-(4-Chlorobenzyl)-8-fluoro-4-hydroxy-6-(3-oxopropyl)-3-quinolinecarboxamide] | 1.9 µM
O=C(NCc1ccc(Cl)cc1)c1cnc2c(F)cc(CO)cc2c1O [Example 141, N-(4-Chlorobenzyl)-8-fluoro-4-hydroxy-6-(hydroxymethyl)-3-quinolinecarboxamide] | 10.1 µM
O=C(NCc1ccc(Cl)cc1)c1cnc2c(F)cc(C#CCF)cc2c1O [Example 143, N-(4-Chlorobenzyl)-8-fluoro-6-(3-fluoro-1-propynyl)-4-hydroxy-3-quinolinecarboxamide] | 3 µM
CC(C)C(NC(=O)OC(C)(C)C)C(=O)OCCCc1cc(F)c2ncc(C(=O)NCc3ccc(Cl)cc3)c(O)c2c1 (stereo not drawn) [Example 146, 3-(3-{[(4-Chlorobenzyl)amino]carbonyl}-8-fluoro-4-hydroxy-6-quinolinyl)propyl 2-[(tert-butoxycarbonyl)amino]-3-methylbutanoate] | 38.7 µM
O=C(CN1CCOCC1)OCCCc1cc(F)c2ncc(C(=O)NCc3ccc(Cl)cc3)c(O)c2c1 [Example 147, 3-(3-([(4-Chlorobenzyl)amino]carbonyl}-8-fluoro-4-hydroxy-6-quinolinyl)propyl 2-morpholinoacetate] | 7 µM
CC(C)C(N)C(=O)OCCCc1cc(F)c2ncc(C(=O)NCc3ccc(Cl)cc3)c(O)c2c1 (stereo not drawn) [Example 149, 3-(3-{[(4-Chlorobenzyl)amino]carbonyl}-8-fluoro-4-hydroxy-6-quinolinyl)propyl 2-amino-3-methylbutanoate] | 6.3 µM
O=C(Nc1ccccc1)OCC#Cc1cc(F)c2ncc(C(=O)NCc3ccc(Cl)cc3)c(O)c2c1 [Example 150, 3-(3-{[(4-Chlorobenzyl)amino]carbonyl}-8-fluoro-4-hydroxy-6-quinolinyl)-2-propynyl phenylcarbamate] | 4.8 µM
CCCc1ccc2ncc(C(=O)NCc3ccc(Cl)cc3)c(O)c2c1 [Example 151, N-(4-Chlorobenzyl)-4-hydroxy-6-propyl-3-quinolinecarboxamide] | 0.91 µM
CC(O)C#Cc1ccc2ncc(C(=O)NCc3ccc(Cl)cc3)c(O)c2c1 (stereo not drawn) [Example 152, N-(4-Chlorobenzyl)-4-hydroxy-6-(3-hydroxy-1-butynyl)-3-quinolinecarboxamide] | 5.4 µM
CC(=O)/C=C/c1cc(F)c2ncc(C(=O)NCc3ccc(Cl)cc3)c(O)c2c1 [Example 153, N-(4-Chlorobenzyl)-8-fluoro-4-hydroxy-6-[(E)-3-oxo-1-butenyl]-3-quinolinecarboxamide] | 8.3 µM
O=C(NCc1ccc(Cl)cc1)c1cnc2c(F)cc(CCCCCO)cc2c1O [Example 154, N-(4-Chlorobenzyl)-8-fluoro-4-hydroxy-6-(5-hydroxypentyl)-3-quinolinecarboxamide] | 3.4 µM
CC(C)(C)OC(=O)NCCCCC(NC(=O)OC(C)(C)C)C(=O)OCCCc1cc(F)c2ncc(C(=O)NCc3ccc(Cl)cc3)c(O)c2c1 (stereo not drawn) [Example 155, 3-(3{[(4-Chlorobenzyl)amino]carbonyl}-8-fluoro-4-hydroxy-6-quinolinyl)propyl 2,6-bis[(tert-butoxycarbonyl)amino]hexanoate] | ≥ 50 µM
NCCCCC(N)C(=O)OCCCc1cc(F)c2ncc(C(=O)NCc3ccc(Cl)cc3)c(O)c2c1 (stereo not drawn) [Example 156, 3-(3-{[(4-Chlorobenzyl)amino]carbonyl}-8-fluoro-4-hydroxy-6-quinolinyl)propyl 2,6-diaminohexanoate, trifluoroacetic acid salt] | 15.9 µM
O=C(NCc1ccc(Cl)cc1)c1cnc2c(F)cc(CN3CCOCC3)cc2c1O [Example 158, N-(4-Chlorobenzyl)-8-fluoro-4-hydroxy-6-(4-morpholinylmethyl)-3-quinolinecarboxamide] | < 0.78 µM
O=C(Nc1ccccc1)OCCCc1cc(F)c2ncc(C(=O)NCc3ccc(Cl)cc3)c(O)c2c1 [Example 159, 3-(3-{[(4-Chlorobenzyl)amino]carbonyl}-8-fluoro-4-hydroxy-6-quinolinyl)propyl phenylcarbamate] | 5 µM
CC(=O)CCc1cc(F)c2ncc(C(=O)NCc3ccc(Cl)cc3)c(O)c2c1 [Example 160, N-(4-Chlorobenzyl)-8-fluoro-4-hydroxy-6-(3-oxobutyl)-3-quinolinecarboxamide] | 1.2 µM
O=C(NCc1ccc(Cl)cc1)c1cnc2ccc(COCCO)cc2c1O [Example 163, N-(4-Chlorobenzyl)-4-hydroxy-6-[(2-hydroxyethoxy)methyl]-3-quinolinecarboxamide] | 0.59 µM
O=C(NCc1ccc(Cl)cc1)c1cnc2ccc(COC(CO)CO)cc2c1O [Example 164, N-(4-Chlorobenzyl)-4-hydroxy-6-{[2-hydroxy-1-(hydroxymethyl)ethoxy]methyl}-3-quinolinecarboxamide] | 2.3 µM
COC(=O)c1ccc2ncc(C(=O)NCc3ccc(Cl)cc3)c(O)c2c1 [Example 165, Methyl 3-{[(4-chlorobenzyl)amino]carbonyl}-4-hydroxy-6-quinolinecarboxylate] | 6.7 µM

SMILES | IC50
O=C(NCc1ccc(Cl)cc1)c1cnc2ccc(CO)cc2c1O [Example 166, N-(4-Chlorobenzyl)-4-hydroxy-6-(hydroxymethyl)-3-quinolinecarboxamide] | 7 µM
Cc1cc(Cl)cc2c(O)c(C(=O)NCc3ccc(Cl)cc3)cnc12 [Example 167, 6-Chloro-N-[(4-chlorophenyl)methyl]-4-hydroxy-8-methyl-3-quinolinecarboxamide] | 5 µM
O=C(NCc1ccc(Cl)cc1)c1cnc2cc(F)c(F)cc2c1O [Example 169, N-[(4-Chlorophenyl)methyl]-6,7-difluoro-4-hydroxy-3-quinolinecarboxamide] | 3.7 µM
CSc1cc(F)c2ncc(C(=O)NCc3ccc(Cl)cc3)c(O)c2c1 [Example 170, N-(4-Chlorobenzyl)-8-fluoro-4-hydroxy-6-(methylsulfanyl)-3-quinolinecarboxamide] | 4.4 µM
O=C(NCc1ccc(Cl)cc1)c1cnc2c(F)cc(SCCO)cc2c1O [Example 171] | 1.9 µM
NCCSc1cc(F)c2ncc(C(=O)NCc3ccc(Cl)cc3)c(O)c2c1 [Example 172, 6-[(2-Aminoethyl)sulfanyl]-N-(4-chlorobenzyl)-8-fluoro-4-hydroxy-3-quinolinecarboxamide, hydrobromide] | 35.1 µM
COCCOCSc1cc(F)c2ncc(C(=O)NCc3ccc(Cl)cc3)c(O)c2c1 [Example 173, N-(4-Chlorobenzyl)-8-fluoro-4-hydroxy-6-{[(2-methoxyethoxy)-methyl]sulfanyl}-3-quinolinecarboxamide] | 12.8 µM
O=C(NCc1ccc(Cl)cc1)c1cnc2c(F)cc(SCCN3CCOCC3)cc2c1O [Example 174] | 28.9 µM
C[S+]([O-])c1cc(F)c2ncc(C(=O)NCc3ccc(Cl)cc3)c(O)c2c1 (stereo not drawn) [Example 175, N-(4-Chlorobenzyl)-8-fluoro-4-hydroxy-6-(methylsulfinyl)-3-quinolinecarboxamide] | 7.2 µM
CS(=O)(=O)c1cc(F)c2ncc(C(=O)NCc3ccc(Cl)cc3)c(O)c2c1 [Example 176, N-(4-Chlorobenzyl)-8-fluoro-4-hydroxy-6-(methylsulfonyl)-3-quinolinecarboxamide] | 11.4 µM
O=C(NCc1ccc(Cl)cc1)c1cnc2c(F)cc([S+]([O-])CCO)cc2c1O (stereo not drawn) [Example 177, N-(4-Chlorobenzyl)-8-fluoro-4-hydroxy-6-[(2-hydroxyethyl)sulfinyl]-3-quinolinecarboxamide] | 7.2 µM
O=C(NCc1ccc(Cl)cc1)c1cnc2c(F)cc(C(=O)N3CCOCC3)cc2c1O [Example 180, N-(4-Chlorobenzyl)-8-fluoro-4-hydroxy-6-(4-morpholinylcarbonyl)-3-quinolinecarboxamide] | 28.2 µM
O=C(NCCO)c1cc(F)c2ncc(C(=O)NCc3ccc(Cl)cc3)c(O)c2c1 [Example 181, N^3-(4-Chlorobenzyl)-8-fluoro-4-hydroxy-N^6-(2-hydroxyethyl)-3,6-quinolinedicarboxamide] | 39.2 µM
CN(C)C(=O)c1cc(F)c2ncc(C(=O)NCc3ccc(Cl)cc3)c(O)c2c1 [Example 182, N^3-(4-Chlorobenzyl)-8-fluoro-4-hydroxy-N^6,N^6-dimethyl-3,6-quinolinedicarboxamide] | 5 µM
O=C(NCCc1ccc(O)cc1)c1cc(F)c2ncc(C(=O)NCc3ccc(Cl)cc3)c(O)c2c1 [Example 183, N^3-(4-Chlorobenzyl)-8-fluoro-4-hydroxy-N^6-(4-hydroxyphenethyl)-3,6-quinolinedicarboxamide] | 32 µM
NC(=O)c1cc(F)c2ncc(C(=O)NCc3ccc(Cl)cc3)c(O)c2c1 [Example 184, N^3-(4-Chlorobenzyl)-8-fluoro-4-hydroxy-3,6-quinolinedicarboxamide] | 30.4 µM
O=C(NCc1ccc(Cl)cc1)c1cc(F)c2ncc(C(=O)NCc3ccc(Cl)cc3)c(O)c2c1 [Example 185, N^3,N^6 -Bis(4-chlorobenzyl)-8-fluoro-4-hydroxy-3,6-quinolinedicarboxamide] | 32.8 µM
Nc1cc(F)c2ncc(C(=O)NCc3ccc(Cl)cc3)c(O)c2c1 [Example 186, 6-Amino-N-(4-chlorobenzyl)-8-fluoro-4-hydroxy-3-quinolinecarboxamide] | 13.8 µM
COc1ccc(S(=O)(=O)Nc2cc(F)c3ncc(C(=O)NCc4ccc(Cl)cc4)c(O)c3c2)cc1 [Example 187, N-(4-Chlorobenzyl)-8-fluoro-4-hydroxy-6-{[(4-methoxyphenyl)-sulfonyl]amino}-3-quinolinecarboxamide] | 17.7 µM

Source: patent US6093732A, “4-hydroxyquinoline-3-carboxamides and hydrazides as antiviral agents” (Pharmacia & Upjohn Company, priority 1998, dated 2000)
